Measured values as given in the CheMixHub viscosity set.
“And” between values parts separate entries of the source, which are not always exact repeats. Equal entries are not always repeated.

CCCC[N+]1(C)CCCC1.FC(F)(F)C(F)(F)[P-](F)(F)(F)(C(F)(F)C(F)(F)F)C(F)(F)C(F)(F)F
101 kPa
Conditions	viscosity [mPa·s]
298.15 K	283.4
303.15 K	214
308.15 K	166.2
313.15 K	122.1
318.15 K	100.3
323.15 K	80.1

Cc1ccc(C)c(C)c1
102 kPa
Conditions	viscosity [mPa·s]
293.15 K	0.84
303.15 K	0.731
313.15 K	0.64
323.15 K	0.567

C1CCCCC1
Conditions	viscosity
293.15 K, 101 kPa	0.972 mPa·s
293.15 K, 101.3 kPa	0.986 mPa·s
298 K, 101 kPa	0.99 mPa·s
298 K, 101.3 kPa	0.883 mPa·s
298.15 K, 100 kPa	0.8956 mPa·s and 0.8961 mPa·s
298.15 K, 101.3 kPa	0.905 mPa·s and 0.8862 mPa·s
303 K, 101.33 kPa	0.8141 mPa·s
303.15 K, 100 kPa	0.82 mPa·s
303.15 K, 101.32 kPa	0.826 mPa·s
303.75 K, 101.33 kPa	0.8403 mPa·s
307.35 K, 101.33 kPa	0.76 mPa·s
307.4 K, 101.33 kPa	0.309 mPa·s
308 K, 101 kPa	0.86 mPa·s
308.15 K, 100 kPa	0.7316 mPa·s
308.15 K, 101.3 kPa	0.7483 mPa·s and 0.7592 mPa·s
312.75 K, 101.33 kPa	0.7277 mPa·s
313 K, 101.33 kPa	0.7045 mPa·s
313.15 K, 100 kPa	0.7 mPa·s
313.15 K, 101 kPa	0.687 mPa·s and 0.6934 mPa·s
313.15 K, 101.3 kPa	0.7003 mPa·s and 0.6886 mPa·s
313.15 K, 101.33 kPa	0.682 mPa·s and 0.6995 mPa·s
318 K, 101.3 kPa	0.6338 mPa·s and 0.6445 mPa·s
318 K, 101.33 kPa	0.6338 mPa·s
318.15 K, 101 kPa	0.649 mPa·s and 0.648 mPa·s and 0.655 mPa·s
321.15 K, 101.32 kPa	0.5964 mPa·s
322.15 K, 101.32 kPa	0.5901 mPa·s
323 K, 101 kPa	0.6023 mPa·s and 0.6009 mPa·s
323 K, 101.33 kPa	0.6126 mPa·s
323.15 K, 100 kPa	0.6074 mPa·s and 0.6 mPa·s and 0.6077 mPa·s
323.15 K, 101 kPa	0.607 mPa·s
323.15 K, 101.32 kPa	0.5842 mPa·s

CCC(C)=O
Conditions	viscosity
293.15 K, 100 kPa	0.4 mPa·s and 0.4152 mPa·s
298 K, 101.3 kPa	0.475 mPa·s
298 K, 101.33 kPa	0.3774 mPa·s
298.15 K, 100 kPa	0.3992 mPa·s
298.15 K, 101.3 kPa	0.407 mPa·s
298.15 K, 101.33 kPa	0.384 mPa·s and 0.46 mPa·s and 0.39 mPa·s
299.15 K, 101.3 kPa	0.401 mPa·s
303.15 K, 101.3 kPa	0.364 mPa·s
303.15 K, 101.33 kPa	0.366 mPa·s
307.35 K, 101.33 kPa	0.35 mPa·s
308.15 K, 100 kPa	0.344 mPa·s and 0.3666 mPa·s
308.15 K, 101.33 kPa	0.342 mPa·s and 0.422 mPa·s
313.15 K, 101.3 kPa	0.356 mPa·s
318 K, 101.3 kPa	0.3429 mPa·s
318 K, 101.33 kPa	0.3417 mPa·s
318.15 K, 101 kPa	0.3194 mPa·s and 0.3213 mPa·s and 0.322 mPa·s
318.15 K, 101.3 kPa	0.343 mPa·s
318.15 K, 101.33 kPa	0.311 mPa·s and 0.397 mPa·s
323.15 K, 100 kPa	0.31 mPa·s and 0.304 mPa·s
323.15 K, 101.3 kPa	0.3327 mPa·s
